Row | Compound | melting point [°C]
1 | Cc1cc(C(C)(C)C)cc(CN)c1S | 127 to 131
2 | O=C1Nc2cccnc2Nc2ccccc21 | 278 to 280
3 | CCN1C(c2ccccc2C(=O)c2ccc(Cl)cc2)=NCC1(C)C | 85 to 87
4 | CNC(=O)CCC(=O)c1ccc(OCC(O)CNC(C)C)cc1 (centres undefined) | 175 to 178
5 | O=S(=O)(NN=C(Cl)c1ccc(F)cc1Cl)c1ccccc1 | 133 to 135
6 | Cc1nc2c(N)nc3c(c2n1CCCCCS(C)(=O)=O)CCCC3 | 172 to 174
7 | Cc1c(NC(=O)OC(C)(C)C)cnn1-c1cccnc1 | 89 to 91
8 | Cc1ccc(-c2[nH]c(-c3ccccc3)nc2C(=O)Nc2nc(-c3ccccc3)cs2)cc1 | 274 to 276
9 | O=C(O)c1cc(Br)cnc1O | 245
10 | CC1(C(=O)Nc2ccc(OCC3CC3)c(C(F)(F)F)c2)CC1 | 84 to 85
11 | CON=C(Nc1nc(C)cc(C)n1)NS(=O)(=O)c1ccccc1-c1ccccc1 | 190 to 192
12 | FC(F)(F)c1ccc(COc2ncncc2Oc2ccccc2)cc1 | 56 to 57
13 | CSCC(=O)C(Cc1cccc2ccccc12)NC(=O)C(CC(C)C)NC(=O)OCc1ccccc1 (centres undefined) | 77 to 80
14 | O=[N+]([O-])c1ccc(N2C[C@@H]3C[C@H]2CO3)c(F)c1 | 106 to 108
15 | CC(C)(C(=O)c1ccccc1)n1cncn1 | 134 to 135
16 | OC12CC3CC(CC(C3)C1=C1C3CC4CC(C3)CC1C4)C2 | 212 to 213
17 | Cc1c(NC(=O)c2ccc(-c3ccc4c(c3)CCCO4)cc2)ccc2cc(CN3CCCC3)cnc12 | 195 to 197
18 | O=C(CN1CCN(c2ccc(NC(=O)c3ccccc3-c3ccc(C(F)(F)F)cc3)cc2)CC1)NCc1cccc(-c2ccccc2)c1 | 165 to 167
19 | O=c1c2ccc(F)cc2nc(CSc2ncnc3[nH]cnc23)n1-c1ccccc1Cl | 151 to 154
20 | Fc1ccccc1Cn1nc(-c2nc(C(F)(F)F)cc(C(F)(F)F)n2)c2cccnc21 | 109
21 | O=C1Nc2cccnc2N(C(=O)CN2CCN(CCN3CCOCC3)CC2)c2ccccc21 | 227 to 229
22 | CC1(C(O)(C=Cc2ccc(Cl)cc2)Cn2cncn2)CC1(F)F (centres undefined) | 131
23 | CCOC(=O)c1cc(Cl)c(-n2ncc(C)n2)c(Cl)c1 | 136 to 138
24 | CC(C)(C)c1cc2c(c(C(C)(C)C)c1)OC(C(F)(F)F)C(C(=O)O)=C2 (centres undefined) | 172 to 175
25 | Cc1cccc(C#CC2=CC(=NO)CCC2)n1 | 166 to 168
26 | Fc1ccc(F)c(CC2CCN(C3CC=C(c4ccc5c(c4)OCO5)CC3)CC2)c1 (centres undefined) | 87 to 88
27 | O=C(O)C1CCc2c(c(=O)c3cccnc3n2-c2cccc(Cl)c2)C1 (centres undefined) | 279 to 280
28 | COC(=O)C1Cc2ccccc2N1C(=O)C(C)(C)CSC(C)=O (centres undefined) | 136 to 138

Row | Compound | melting point [°C]
29 | Oc1ccc(CCc2cc(O)cc(O)c2)cc1 | 160 to 161
30 | CCCCCc1ccc(C(=O)NO)cc1 | 89.9 to 90.1
31 | CCCc1nc(I)c(C=O)[nH]1 | 141 to 142
32 | O=C(Cc1ccn(-c2ccc(F)cc2)c1)N1C(=O)OC[C@@H]1Cc1ccccc1 | 106 to 108
33 | COC(=O)C1=C(O)c2cc(Cl)sc2S(=O)(=O)N1 | 173 to 174
34 | CCOC(=O)C(C)=Cc1cc(F)c(F)c(F)c1 | 54
35 | Nc1nc(SCc2ccccn2)nc(Cl)c1Br | 119 to 120
36 | CNc1ncnc(NCc2c(F)cccc2Cl)c1N | 210 to 213
37 | CC1(C)C=CC(=Cc2ccc(F)cc2)C1(O)Cn1ccnc1 (centres undefined) | 172
38 | NS(=O)(=O)c1cccc(NC(=O)c2cnn3c(C(F)F)cc(-c4ccc(C(F)(F)F)cc4)nc23)c1 | 258
39 | C=CCNC(=O)N1C[C@@H](Oc2cccc(C(F)(F)F)c2)[C@@H]1C (relative stereo) | 55 to 57
40 | O=C(O)C1CCCc2c(n(Cc3ccc(Cl)cc3)c3ccc(F)cc23)C1 (centres undefined) | 185 to 186
41 | CN1CCC(C)(c2nc(-c3ccncc3)c(-c3ccc(F)cc3)[nH]2)CC1 | 227 to 229
42 | O=C(O)C(=O)c1ccc(-c2ccc(Cl)cc2)s1 | 339 to 343
43 | O=C(CCNC(=O)c1ccccc1)NCCSC(=O)c1ccccc1 | 154 to 155
44 | CSC(=NCCN1CCC(c2noc3cc(F)ccc23)CC1)NC#N | 148 to 151
45 | Cc1ccc(-c2ccccn2)cc1S(N)(=O)=O | 173 to 176
46 | O=S(=O)(Cc1cn(C23CC4CC(CC(C4)C2)C3)nn1)c1cc(Cl)ccc1Cl | 198 to 199
47 | [N-]=[N+]=Nc1cc(C2COCOC2)c2occc2c1 | 102 to 104
48 | CN(C)c1ccccc1CS(=O)c1nccn1-c1ccc(N)cn1 (centres undefined) | 140 to 143
49 | CC(/C=C/n1ncc(-c2ccc(S(N)(=O)=O)cc2)c(-c2ccc(F)cc2)c1=O)C(F)(F)F (centres undefined) | 155 to 157
50 | Oc1nc2ccc3ncsc3c2nc1O | > 360
51 | CC(C)(C)OC(=O)N1C[C@@H]([C@H](O)CO)CC1=O | 92 to 94
52 | O=C1NCCN1Cc1c(Cl)cccc1Cl | 156 to 158
53 | CN(C(=O)C1CCCCC1)c1cccc(-c2nc(=O)c3ccccc3s2)n1 | 184 to 186
54 | O=c1[nH]c2ccc(Cn3ccnc3)cc2[nH]c1=O | > 300
55 | O=C(OCc1ccccc1)N1CCC(NCC(O)Cn2ccnc2[N+](=O)[O-])C(O)C1 (centres undefined) | 140 to 142

Second part, the molecule after the results:

Row | melting point [°C] | Compound
56 | 230 to 232 | CCc1cc(-c2ccc(Cl)cc2)nc2c(C(=O)Nc3cccc(S(C)(=O)=O)c3)cnn12
57 | 129 | CCOC(=O)c1ccc(CN2CCN(c3cc(-c4ccccc4)c4ccc(=O)ccn34)CC2)cc1
58 | 106 to 107 | COc1ccc(C2CCc3c(OC(C)=O)cc(OC(C)=O)cc3O2)cc1OC(C)=O (centres undefined)
59 | 125 to 126 | Cc1cc(OC(F)F)c([N+](=O)[O-])cc1S(=O)(=O)N(C)C
60 | 156 to 157 | COc1cc(OC)c2c(=O)[nH]c(-c3ccc(OCCNC(C)C)c(-c4cccc(S(C)=O)c4)n3)nc2c1 (centres undefined)
61 | 123 to 125 | COc1cc([N+](=O)[O-])ccc1-c1sc(C)nc1C
62 | 103 to 104 | COc1c(C)c(C)cc(C)c1C(O)(c1ccc(C)cc1)C(C)C (centres undefined)
63 | 157 to 159 | CCC[C@H](Oc1cc(C)c(-n2cc(C(F)(F)F)cn2)c(C)c1)c1ccc(C(=O)NCCC(=O)O)cc1
64 | 144 to 146 | COc1ccc2c(n1)C1(CO2)C(=O)N(Cc2ccc3c(c2)OCCO3)c2ccccc21 (centres undefined)
65 | 141 to 142 | CC(=O)c1sc(N2CCN(Cc3ccc(C(F)(F)F)cc3)C2=O)nc1C
66 | 104 to 106 | CCOC(=O)c1ccc(Cn2cnc3cccnc32)cc1
67 | 95 to 98 | Nc1cc(OCc2ccccc2)c(OCc2ccccc2)cc1C=C(Br)Br
68 | 159 to 160 | Cc1oc(-c2cccs2)nc1COc1ccc(Cn2cc(CCC(=O)O)c(-c3ccccc3)n2)cc1
69 | 107 to 109 | CCCOC(=O)c1cccc2c1S[C@@H](c1ccc(OC)cc1)[C@@H](OC(C)=O)C(=O)N2CCN(C)C (racemic)
70 | 157 to 159 | CCn1c(=O)n(OCc2ccccc2)c(=O)c2cc(F)c(N3CCC(NC(=O)OC(C)(C)C)C3)nc21 (centres undefined)
71 | 184 to 185 | CCCCn1c(CO)nc2c(Cl)nc3ccccc3c21
72 | 252 | CCOC(=O)c1ccc(-c2[nH]nc3c2C(=O)c2c(NC(=O)N(NC)NC)cccc2-3)s1
73 | 112 | COc1ccc(C(=O)C=Cc2ccc(SC)cc2)cc1
74 | 218 to 220 | CC(C)(C)c1nc(-c2ccc3ccccc3c2)c(-c2ccncc2)[nH]1
75 | 174 to 175 | CCOCc1nc2c(N)nc3cccnc3c2n1CCCC(C)N(OC)C(=O)NC(C)C (centres undefined)
76 | 180 to 181 | Cc1ccc(Nc2nnc(Cc3ccncc3)c3ccccc23)cc1C
77 | 116 to 118 | CCOC(=O)C=Cc1cc(C=CC(=O)OC(C)(C)C)cc(Oc2cccnc2)c1
78 | 115 | COc1ccc([C@]2(c3ccc(F)c(-c4cncnc4)c3)N=C(N)N(C)C2=O)cc1C
79 | 138 to 140 | Cc1ccc2c(c1)C(=O)N(CCN1CCC(c3noc4cc(F)ccc34)CC1)C2=O
80 | 69 to 71 | CCCCCCCCOc1ccc(C#N)c(O)c1
81 | 135 to 137 | COC[C@@H](NS(=O)(=O)c1ccc2c(Cl)cnc(Cl)c2c1)C(=O)OC(C)(C)C
82 | 165 | COc1ccc(-c2cn(C)cc(-c3ccccc3)c2=O)cc1
83 | 127 | CC(C)(C)OC(=O)N(Cc1ccccc1)S(N)(=O)=O
84 | 95 to 96 | COc1cc(CCc2c(/C=C/[N+](=O)[O-])ccc(OC)c2OC)cc(OC)c1
